Measurements: ChEMBL document CHEMBL1152879, “Discovery of GlyT1 inhibitors with improved pharmacokinetic properties” (Bioorg Med Chem Lett, 2009)
Calls of active or inactive are those of the source. The calls are words filed in the database; no cut-off is given here.

Experiments:
[1] = biological target: T1, Sodium- and chloride-dependent glycine transporter 1 (Homo sapiens) (UniProt P48067); test: (§1) Inhibition of Glyt1
T1 sequence (whole entry): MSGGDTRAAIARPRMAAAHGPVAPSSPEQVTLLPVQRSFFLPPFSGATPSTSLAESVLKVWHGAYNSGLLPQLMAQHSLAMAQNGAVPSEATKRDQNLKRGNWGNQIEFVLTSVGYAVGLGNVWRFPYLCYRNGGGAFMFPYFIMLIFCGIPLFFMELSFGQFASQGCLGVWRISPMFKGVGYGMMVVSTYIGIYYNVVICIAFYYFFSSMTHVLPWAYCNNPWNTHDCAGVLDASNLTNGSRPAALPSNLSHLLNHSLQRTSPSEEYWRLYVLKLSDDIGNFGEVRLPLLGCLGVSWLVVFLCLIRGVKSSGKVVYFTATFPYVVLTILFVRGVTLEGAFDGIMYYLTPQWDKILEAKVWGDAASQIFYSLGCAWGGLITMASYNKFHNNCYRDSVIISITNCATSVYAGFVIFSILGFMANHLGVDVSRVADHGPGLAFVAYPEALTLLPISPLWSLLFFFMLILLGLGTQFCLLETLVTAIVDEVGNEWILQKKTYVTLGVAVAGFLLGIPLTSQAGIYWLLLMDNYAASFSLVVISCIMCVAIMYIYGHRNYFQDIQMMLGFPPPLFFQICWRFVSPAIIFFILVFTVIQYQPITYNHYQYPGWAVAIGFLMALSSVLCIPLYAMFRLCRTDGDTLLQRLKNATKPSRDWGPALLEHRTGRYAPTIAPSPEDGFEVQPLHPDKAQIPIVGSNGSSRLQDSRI

[2] = Clearance in dog at 0.25 mg/kg, iv by cassette dosing; format: ADME, organism-based, Canis lupus familiaris; parameters: dose 0.25 mg/kg, route intravenous; conditions: in vivo
[3] = Clearance in dog at 0.5 mg/kg, iv and 1 mg/kg, po; format: ADME, organism-based, Canis lupus familiaris; conditions: in vivo
[4] = Half life in dog at 0.5 mg/kg, iv and 1 mg/kg, po; format: ADME, organism-based, Canis lupus familiaris; conditions: in vivo
[5] = Volume of distribution at steady state in dog at 0.5 mg/kg, iv and 1 mg/kg, po; format: ADME, organism-based, Canis lupus familiaris; conditions: in vivo, read-out: Vdss
[6] = Oral bioavailability in dog at 1 mg/kg; format: ADME, organism-based, Canis lupus familiaris; conditions: in vivo
MDR1 (human) = test: Passive permeability from apical to basolateral side of pig LLC-PK1 cells expressing human MDR1; format: ADME, cell-based, Sus scrofa; conditions: read-out: permeability
Rattus norvegicus [7] = test: In vivo plasma occupancy by displacement of [35S]ACPPB from rat GlyT1 in po dosed rat brain; format: functional
Homo sapiens = species: Homo sapiens; test: Activity of human P-glycoprotein
Rattus norvegicus [8] = species: Rattus norvegicus; test: Activity of rat P-glycoprotein
[9] = biological target: T2, Sodium- and chloride-dependent glycine transporter 1 (Homo sapiens, UniProt P48067); test: as §1
T2 sequence (P48067 whole entry): T1 sequence (whole entry)

[10] = Half life in dog at 0.25 mg/kg, iv by cassette dosing; format: ADME, organism-based, Canis lupus familiaris; parameters: dose 0.25 mg/kg, route intravenous; conditions: in vivo
[11] = biological target: T3, Sodium- and chloride-dependent glycine transporter 2 (Homo sapiens, UniProt Q9Y345); test: Inhibition of Glyt2
T3 sequence (Q9Y345 whole entry): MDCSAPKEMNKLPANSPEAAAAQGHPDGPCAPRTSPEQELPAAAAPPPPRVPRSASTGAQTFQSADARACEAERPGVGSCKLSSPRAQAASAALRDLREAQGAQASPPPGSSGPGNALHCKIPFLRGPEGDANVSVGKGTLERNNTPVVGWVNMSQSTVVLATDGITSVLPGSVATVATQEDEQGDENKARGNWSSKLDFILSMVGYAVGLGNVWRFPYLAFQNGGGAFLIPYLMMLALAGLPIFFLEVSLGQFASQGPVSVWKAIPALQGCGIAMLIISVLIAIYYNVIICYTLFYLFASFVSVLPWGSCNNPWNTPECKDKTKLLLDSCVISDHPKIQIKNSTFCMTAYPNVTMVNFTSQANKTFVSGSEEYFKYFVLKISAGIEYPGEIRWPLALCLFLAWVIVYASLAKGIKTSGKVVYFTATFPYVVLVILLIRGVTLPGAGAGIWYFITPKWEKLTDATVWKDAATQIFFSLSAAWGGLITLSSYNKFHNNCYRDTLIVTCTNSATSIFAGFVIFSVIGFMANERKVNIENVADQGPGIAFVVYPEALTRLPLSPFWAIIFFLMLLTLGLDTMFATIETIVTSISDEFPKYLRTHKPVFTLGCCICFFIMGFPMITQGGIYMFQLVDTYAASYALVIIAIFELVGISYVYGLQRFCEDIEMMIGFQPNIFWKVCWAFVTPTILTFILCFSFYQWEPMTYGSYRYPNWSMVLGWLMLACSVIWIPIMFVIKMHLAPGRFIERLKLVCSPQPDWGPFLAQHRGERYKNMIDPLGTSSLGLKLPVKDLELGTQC

[12] = biological target: T4, Sodium- and chloride-dependent taurine transporter (Homo sapiens, UniProt P31641); test: Inhibition of taurine transporter
T4 sequence (P31641 whole entry): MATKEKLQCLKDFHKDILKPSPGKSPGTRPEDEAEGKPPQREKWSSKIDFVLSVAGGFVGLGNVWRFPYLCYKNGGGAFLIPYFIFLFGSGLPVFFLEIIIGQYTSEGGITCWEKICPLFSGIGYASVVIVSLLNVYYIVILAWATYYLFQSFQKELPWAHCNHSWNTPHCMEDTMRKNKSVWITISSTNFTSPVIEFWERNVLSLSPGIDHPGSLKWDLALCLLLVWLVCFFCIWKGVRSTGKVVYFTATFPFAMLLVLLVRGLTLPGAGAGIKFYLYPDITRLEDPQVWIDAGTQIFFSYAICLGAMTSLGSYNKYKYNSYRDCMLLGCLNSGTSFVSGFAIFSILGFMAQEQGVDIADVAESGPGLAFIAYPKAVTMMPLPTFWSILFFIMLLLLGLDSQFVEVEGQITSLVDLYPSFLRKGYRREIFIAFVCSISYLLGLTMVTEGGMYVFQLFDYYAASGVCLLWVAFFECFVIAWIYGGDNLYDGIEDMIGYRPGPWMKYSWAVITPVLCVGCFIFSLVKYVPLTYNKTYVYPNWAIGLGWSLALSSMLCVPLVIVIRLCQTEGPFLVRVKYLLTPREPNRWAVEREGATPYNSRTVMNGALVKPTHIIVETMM

Row | Compound | clearance [2] | IC50 [9] | half-life [10] | IC50 [11] | IC50 [12] | also measured
1 | CCS(=O)(=O)N1CCC(c2ccccn2)([C@H](C)NC(=O)c2ccc(Cl)cc2Cl)CC1 | 3.6 mL/min/kg |  |  |  |  | Activity [1]: 11 nM; clearance [3]: 3.5 mL/min/kg; half-life [4]: 300 min; Vd [5]: 1.37 L/kg; bioavailability [6]: 25%; Papp A→B (MDR1 (human)): 37 ×10⁻⁶ cm/s; Occ50 (Rattus norvegicus [7]): 150 nM; Activity (Homo sapiens): inactive; Activity (Rattus norvegicus [8]): inactive
2 | O=C(NCC1(c2ccccn2)CCN(S(=O)(=O)CC(F)(F)F)CC1)c1ccc(Cl)cc1Cl | 2.5 mL/min/kg | 1070 nM | 294 min |  |  | 
3 | CC(C)S(=O)(=O)N1CCC(CNC(=O)c2ccc(Cl)cc2Cl)(c2ccccn2)CC1 |  | 220 nM |  |  |  | 
4 | CN(C)S(=O)(=O)N1CCC(CNC(=O)c2ccc(Cl)cc2Cl)(c2ccccn2)CC1 | 11.8 mL/min/kg | 77 nM | 114 min |  |  | 
5 | O=C(NCC1(c2ccccn2)CCN(S(=O)(=O)C(F)(F)F)CC1)c1ccc(Cl)cc1Cl |  | > 5000 nM |  |  |  | 
6 | CS(=O)(=O)N1CCC(CNC(=O)c2ccc(Cl)cc2Cl)(c2ccccn2)CC1 | 1 mL/min/kg | 300 nM | 504 min | > 30 µM | > 30 µM | 
7 | O=C(NCC1(c2ccccn2)CCN(S(=O)(=O)C2CC2)CC1)c1ccc(Cl)cc1Cl | 1.7 mL/min/kg | 200 nM | 456 min | > 30 µM | > 30 µM | 
8 | CC(F)CS(=O)(=O)N1CCC(CNC(=O)c2ccc(Cl)cc2Cl)(c2ccccn2)CC1 (stereo unspecified) |  | 9.7 nM |  | > 30 µM | > 30 µM | 
9 | CCCS(=O)(=O)N1CCC(CNC(=O)c2ccc(Cl)cc2Cl)(c2ccccn2)CC1 | 15 mL/min/kg |  | 138 min | > 30 µM | > 30 µM | 
10 | CC(O)CS(=O)(=O)N1CCC(CNC(=O)c2ccc(Cl)cc2Cl)(c2ccccn2)CC1 (stereo unspecified) |  | 86 nM |  |  |  | 
11 | CCCCS(=O)(=O)N1CCC(CNC(=O)c2ccc(Cl)cc2Cl)(c2ccccn2)CC1 |  | 120 nM |  |  |  | 

Now from value to compound, other results behind:

Row | clearance [2] | IC50 [9] | half-life [10] | IC50 [11] | IC50 [12] | Compound | also measured
12 | > 15 mL/min/kg | 2.9 nM | < 120 min | > 30 µM | > 30 µM | CCCS(=O)(=O)N1CCC(CNC(=O)c2ccc(Cl)cc2Cl)(CC2CCCCO2)CC1 (stereo unspecified) | 
13 | 1.4 mL/min/kg | 57 nM | 480 min | > 30 µM | > 30 µM | CCS(=O)(=O)N1CCC(CNC(=O)c2ccc(Cl)cc2Cl)(c2ccccn2)CC1 | 
14 | 0.84 mL/min/kg |  |  |  |  | CCS(=O)(=O)N1CCC(CNC(=O)c2ccc(Cl)cc2Cl)(CC2CC2)CC1 | clearance [3]: 2.3 mL/min/kg; half-life [4]: 708 min; Vd [5]: 2.1 L/kg; bioavailability [6]: 38%; Occ50 (Rattus norvegicus [7]): 260 nM; Activity (Homo sapiens): inactive; Activity (Rattus norvegicus [8]): inactive
15 | > 15 mL/min/kg | 17.7 nM | < 120 min |  |  | CCCS(=O)(=O)N1CCC(CNC(=O)c2ccc(Cl)cc2Cl)(C2CCCCC2OC(C)=O)CC1 (stereo unspecified) | 
16 | > 15 mL/min/kg | 26.5 nM | < 120 min | > 30 µM | > 30 µM | CCCS(=O)(=O)N1CCC(CCOC)(CNC(=O)c2ccc(Cl)cc2Cl)CC1 | 
17 | > 15 mL/min/kg | 2.8 nM | < 120 min | > 30 µM | > 30 µM | CCCS(=O)(=O)N1CCC(CNC(=O)c2ccc(Cl)cc2Cl)(C2CCCCC2O)CC1 (stereo unspecified) | 
18 | > 15 mL/min/kg | 30 nM | < 120 min | > 30 µM | > 30 µM | CCCS(=O)(=O)N1CCC(CNC(=O)c2ccc(Cl)cc2Cl)(CC2CC2)CC1 | 
19 | > 15 mL/min/kg | 38.1 nM | < 120 min |  |  | CCCS(=O)(=O)N1CCC(CNC(=O)c2ccc(Cl)cc2Cl)(N2CCC2)CC1 | 
